# Measured values as given in PMC10485003, “Antibiotic hyper-resistance in a class I aminoacyl-tRNA synthetase with altered active site signature motif” (Nature Communications, 2023).
# Several values for one entry are separate records, joined by “and”; a condition that tells them apart may be missing. Identical values can stand only once.
# Biological target: T1, mut-GVHH PmIleRS2 (Priestia megaterium, UniProt A0A0B6AVD3, G56H/H54G)
# T1 sequence (A0A0B6AVD3 1-1032 H54G/G56H): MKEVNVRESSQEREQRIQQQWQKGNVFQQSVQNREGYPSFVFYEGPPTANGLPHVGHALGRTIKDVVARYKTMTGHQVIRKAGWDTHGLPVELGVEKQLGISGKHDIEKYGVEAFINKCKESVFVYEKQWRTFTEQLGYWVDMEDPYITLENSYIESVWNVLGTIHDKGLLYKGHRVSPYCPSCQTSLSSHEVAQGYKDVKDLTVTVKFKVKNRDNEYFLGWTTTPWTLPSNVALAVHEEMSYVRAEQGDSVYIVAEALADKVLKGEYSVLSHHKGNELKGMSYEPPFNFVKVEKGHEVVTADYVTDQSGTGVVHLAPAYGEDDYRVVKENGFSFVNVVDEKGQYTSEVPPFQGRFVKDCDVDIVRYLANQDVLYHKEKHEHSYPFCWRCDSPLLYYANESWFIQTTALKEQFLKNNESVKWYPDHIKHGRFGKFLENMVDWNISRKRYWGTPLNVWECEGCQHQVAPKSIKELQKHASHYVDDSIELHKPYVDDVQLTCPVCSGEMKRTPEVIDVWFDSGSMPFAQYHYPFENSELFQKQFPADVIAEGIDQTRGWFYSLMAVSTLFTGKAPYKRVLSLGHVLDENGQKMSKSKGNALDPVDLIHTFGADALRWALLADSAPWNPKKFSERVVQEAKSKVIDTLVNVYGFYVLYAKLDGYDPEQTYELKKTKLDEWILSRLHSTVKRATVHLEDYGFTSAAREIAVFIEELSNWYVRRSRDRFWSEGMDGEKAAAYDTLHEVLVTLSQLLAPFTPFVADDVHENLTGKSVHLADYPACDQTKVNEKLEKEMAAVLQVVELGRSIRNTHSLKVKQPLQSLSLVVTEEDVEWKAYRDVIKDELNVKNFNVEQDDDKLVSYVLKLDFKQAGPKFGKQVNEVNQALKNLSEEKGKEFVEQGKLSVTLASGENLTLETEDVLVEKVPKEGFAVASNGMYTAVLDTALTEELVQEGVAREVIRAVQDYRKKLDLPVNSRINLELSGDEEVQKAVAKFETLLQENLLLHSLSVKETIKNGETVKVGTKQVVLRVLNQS
# Test: ATP-PPi exchange assay, mupirocin inhibition of amino acid activation
# Format: biochemical, Priestia (Bacillus) megaterium
# Procedure: L-Ile and ATP concentrations ranged from 1/10 KM to 10 KM values. When measuring the KI towards one of the substrates, the other was held in saturation (concentrations at least 10 KM). The aliquots of the reaction mixture (1–2.5 μl) were quenched in 2 volumes of 500 mM NaOAc pH = 4.5, 0.1% SDS, and formed ^32P-ATP was separated from the remaining ^32P-PPi by thin-layer chromatography on Polygram CEL 300 PEI UV254 TLC plates (Macherey-Nagel, cat: 801063) using 750 mM KH2PO4 pH=3.5, 4 M urea buffer. Visualization and quantification of the signals was performed using a Typhoon Phosphoimager 5 (General Electric) and accompanying ImageQuant™ TL software (SV: 10.2). The kinetic constants were determined using a global fit option of the competitive inhibition model of GraphPad Prism 6 software (SV: 6.01). All experiments were performed in triplicates. The kcat was determined by dividing the maximal velocity, VM, with the used enzyme concentration. […]
# variable substrate (ATP or Ile) was varied in the range of 0.1 KM to 10 KM. The other substrate (Ile or ATP) was kept in excess at 5 to 10 KM. Data were globally fitted to the competitive inhibition model using GraphPad prism 6.01 for Windows software. The values represent the average value ± SD of three independent experiments. Source data are provided as a Source Data file.
structure (smiles),measurement,setting,value
C/C(=C\C(=O)OCCCCCCCCC(=O)O)C[C@@H]1OC[C@H](C[C@@H]2O[C@H]2[C@@H](C)[C@H](C)O)[C@@H](O)[C@H]1O [mupirocin],vo,"c (mupirocin) = 5.0 mM, c (Ile) 250.0 μM, Replica 3",0.00839 mM/min
same,vo,"c (mupirocin) = 5.0 mM, c (Ile) 500.0 μM, Replica 1",0.01582 mM/min
same,vo,"c (mupirocin) = 5.0 mM, c (Ile) 500.0 μM, Replica 2",0.01771 mM/min
same,vo,"c (mupirocin) = 5.0 mM, c (Ile) 500.0 μM, Replica 3",0.01671 mM/min
same,vo,"c (mupirocin) = 5.0 mM, c (Ile) 1000.0 μM, Replica 1",0.02937 mM/min
same,vo,"c (mupirocin) = 5.0 mM, c (Ile) 1000.0 μM, Replica 2",0.03008 mM/min
same,vo,"c (mupirocin) = 5.0 mM, c (Ile) 1000.0 μM, Replica 3",0.02918 mM/min
same,vo,"c (mupirocin) = 5.0 mM, c (Ile) 1500.0 μM, Replica 1",0.03962 mM/min
same,vo,"c (mupirocin) = 5.0 mM, c (Ile) 1500.0 μM, Replica 2",0.03913 mM/min
same,vo,"c (mupirocin) = 5.0 mM, c (Ile) 1500.0 μM, Replica 3",0.04025 mM/min
same,vo,"c (mupirocin) = 10.0 mM, c (Ile) 100.0 μM, Replica 1",0.00192 mM/min
same,vo,"c (mupirocin) = 10.0 mM, c (Ile) 100.0 μM, Replica 2",0.00188 mM/min
same,vo,"c (mupirocin) = 10.0 mM, c (Ile) 100.0 μM, Replica 3",0.00205 mM/min
same,vo,"c (mupirocin) = 10.0 mM, c (Ile) 250.0 μM, Replica 1",0.00384 mM/min
same,vo,"c (mupirocin) = 10.0 mM, c (Ile) 250.0 μM, Replica 2",0.00477 mM/min
same,vo,"c (mupirocin) = 10.0 mM, c (Ile) 250.0 μM, Replica 3",0.00429 mM/min
same,vo,"c (mupirocin) = 10.0 mM, c (Ile) 500.0 μM, Replica 1",0.00975 mM/min
same,vo,"c (mupirocin) = 10.0 mM, c (Ile) 500.0 μM, Replica 2",0.01055 mM/min
same,vo,"c (mupirocin) = 10.0 mM, c (Ile) 500.0 μM, Replica 3",0.01023 mM/min
same,vo,"c (mupirocin) = 10.0 mM, c (Ile) 1000.0 μM, Replica 1",0.01549 mM/min
same,vo,"c (mupirocin) = 10.0 mM, c (Ile) 1000.0 μM, Replica 2",0.01681 mM/min
same,vo,"c (mupirocin) = 10.0 mM, c (Ile) 1000.0 μM, Replica 3",0.01726 mM/min
same,vo,"c (mupirocin) = 10.0 mM, c (Ile) 1500.0 μM, Replica 1",0.02248 mM/min
same,vo,"c (mupirocin) = 10.0 mM, c (Ile) 1500.0 μM, Replica 2",0.02398 mM/min
same,vo,"c (mupirocin) = 10.0 mM, c (Ile) 1500.0 μM, Replica 3",0.02428 mM/min
same,initial velocity vo,"c(mupirocin) 0.5 mM, c(ATP) 0.5 mM",0.00635 mM/min and 0.00811 mM/min
same,initial velocity vo,"c(mupirocin) 0.5 mM, c(ATP) 1.0 mM",0.01441 mM/min and 0.01486 mM/min and 0.01387 mM/min
same,initial velocity vo,"c(mupirocin) 0.5 mM, c(ATP) 2.5 mM",0.03283 mM/min and 0.03264 mM/min and 0.03523 mM/min
same,initial velocity vo,"c(mupirocin) 0.5 mM, c(ATP) 5.0 mM",0.05375 mM/min and 0.05359 mM/min and 0.05506 mM/min
same,initial velocity vo,"c(mupirocin) 0.5 mM, c(ATP) 10.0 mM",0.07349 mM/min and 0.07632 mM/min and 0.07609 mM/min
same,initial velocity vo,"c(mupirocin) 0.5 mM, c(ATP) 20.0 mM",0.09482 mM/min and 0.09569 mM/min and 0.09403 mM/min
same,initial velocity vo,"c(mupirocin) 0.5 mM, c(Ile) 50.0 μM",0.00742 mM/min and 0.00851 mM/min and 0.00786 mM/min
same,initial velocity vo,"c(mupirocin) 1.0 mM, c(ATP) 0.5 mM",0.00716 mM/min and 0.0055 mM/min and 0.00625 mM/min
same,initial velocity vo,"c(mupirocin) 1.0 mM, c(ATP) 1.0 mM",0.01194 mM/min and 0.01202 mM/min and 0.01221 mM/min
same,initial velocity vo,"c(mupirocin) 1.0 mM, c(ATP) 2.5 mM",0.0252 mM/min and 0.02429 mM/min and 0.02403 mM/min
same,initial velocity vo,"c(mupirocin) 1.0 mM, c(ATP) 5.0 mM",0.04205 mM/min and 0.0434 mM/min and 0.0426 mM/min
same,initial velocity vo,"c(mupirocin) 1.0 mM, c(ATP) 10.0 mM",0.06359 mM/min and 0.06579 mM/min and 0.06457 mM/min
same,initial velocity vo,"c(mupirocin) 1.0 mM, c(ATP) 20.0 mM",0.08534 mM/min and 0.08763 mM/min and 0.08559 mM/min
same,initial velocity vo,"c(mupirocin) 1.0 mM, c(Ile) 50.0 μM",0.00713 mM/min and 0.00706 mM/min and 0.00704 mM/min
same,initial velocity vo,"c(mupirocin) 2.5 mM, c(ATP) 1.0 mM",0.00558 mM/min and 0.0055 mM/min and 0.00551 mM/min
same,initial velocity vo,"c(mupirocin) 2.5 mM, c(ATP) 2.5 mM",0.01306 mM/min and 0.01742 mM/min and 0.01281 mM/min
same,initial velocity vo,"c(mupirocin) 2.5 mM, c(ATP) 5.0 mM",0.02499 mM/min and 0.026 mM/min and 0.02496 mM/min
same,initial velocity vo,"c(mupirocin) 2.5 mM, c(ATP) 10.0 mM",0.04221 mM/min and 0.04045 mM/min and 0.04296 mM/min
same,initial velocity vo,"c(mupirocin) 2.5 mM, c(ATP) 20.0 mM",0.05896 mM/min and 0.06416 mM/min and 0.05964 mM/min
same,initial velocity vo,"c(mupirocin) 2.5 mM, c(Ile) 50.0 μM",0.00279 mM/min and 0.00348 mM/min and 0.00209 mM/min
same,initial velocity vo,"c(mupirocin) 5.0 mM, c(ATP) 0.5 mM",0.00206 mM/min and 0.00219 mM/min and 0.0025 mM/min
same,initial velocity vo,"c(mupirocin) 5.0 mM, c(ATP) 1.0 mM",0.00362 mM/min and 0.00342 mM/min and 0.00337 mM/min
same,initial velocity vo,"c(mupirocin) 5.0 mM, c(ATP) 2.5 mM",0.00795 mM/min and 0.00842 mM/min and 0.00825 mM/min
same,initial velocity vo,"c(mupirocin) 5.0 mM, c(ATP) 5.0 mM",0.01509 mM/min and 0.0154 mM/min and 0.01576 mM/min
same,initial velocity vo,"c(mupirocin) 5.0 mM, c(ATP) 10.0 mM",0.02771 mM/min and 0.02665 mM/min and 0.0265 mM/min
same,initial velocity vo,"c(mupirocin) 5.0 mM, c(ATP) 20.0 mM",0.04308 mM/min and 0.04226 mM/min
same,initial velocity vo,"c(mupirocin) 5.0 mM, c(Ile) 50.0 μM",0.00223 mM/min and 0.00239 mM/min and 0.00197 mM/min
same,initial velocity vo,"c(mupirocin) 10.0 mM, c(Ile) 50.0 μM",0.00094 mM/min and 0.00075 mM/min and 0.00127 mM/min
